Assay results: patent US20210292340A1, “CELL NECROSIS INHIBITOR, PREPARATION METHOD THEREFOR AND USE THEREOF” (SHANGHAI INSTITUTE OF ORGANIC CHEMISTRY, CHINESE ACADEMY OF …, priority 2018, published 2021)
Like-named read-outs stand apart in the source and are kept apart here.

System: Jurkat (FADD−/−) cells
Experiment: Inhibition of TNF-induced programmed Jurkat (FADD−/−) cell necrosis (Cell Titer-Glo)
Format: cell-based, human
Details: 20 h, TNF 10 ng/mL, intracellular ATP level, read-out: Cellular IC50 (M) Jurkat (FADD−/−)
Procedure: Two replicate wells were set for each concentration of each compound.
Jurkat (FADD^−/−) cells (human-derived peripheral blood leukemia T cell line, with FADD gene knocked out) were cultured in vitro. After growing to logarithmic growth phase, the cells were harvested, and centrifuged at 1000 rpm for 5 min. The supernatant was discarded, and the cells were resuspended in fresh medium and adjusted to a cell density of 5×10^5/mL. The cell suspension was added to the culture plate containing the drug (40 μL per well). In the treatment groups, 10 μL of TNF (tumor necrosis factor, final concentration 10 ng/mL) diluted with the cell culture medium was added to each well, and incubated for 20 h in a cell incubator (37° C., 5% CO2). Subsequently, 50 μL of Cell Titer-Glo solution was added to each well and incubated at room temperature for 10 min. Then, the luminescence was detected on BioTek plate reader to measure the intracellular ATP level. The effect of the test compounds in inhibiting TNF-induced cell necrosis was calculated from the full-activity well and background well (with the untreated DMSO control well as 100% cell viability), and the half inhibitory concentration (IC50) of the compound was calculated by Graphpad Prism statistical software.

COc1ncnc2cc3c(cc12)N(C)C(=O)[C@@H](NC(=O)c1n[nH]c(Cc2cccc(F)c2)n1)CO3 [RIP1-159]
IC50 (Homo sapiens, Jurkat): 8.7e-09 M

CN1C(=O)[C@@H](NC(=O)c2nnc(Cc3ccccc3)[nH]2)CSc2cc3occc3cc21 [RIP1-039]
IC50 (Homo sapiens, Jurkat): 4.5e-10 M

CN1C(=O)[C@@H](NC(=O)c2nnc(Cc3ccccc3)[nH]2)COc2cc3ocnc3cc21 [RIP1-218]
IC50 (Homo sapiens, Jurkat): 1.24e-09 M

CN1C(=O)[C@@H](NC(=O)c2ncn(Cc3ccccc3)n2)COc2cc3[nH]ccc3cc21 [RIP1-113]
IC50 (Homo sapiens, Jurkat): 3.07e-10 M

CN1C(=O)[C@@H](NC(=O)c2ccnc(Oc3ccccc3)n2)COc2ccc3ncccc3c21 [RIP1-199]
IC50 (Homo sapiens, Jurkat): 4.76e-05 M

CN1C(=O)[C@@H](NC(=O)c2cc(Oc3ccccc3)ccn2)COc2cc3[nH]nnc3cc21 [RIP1-181]
IC50 (Homo sapiens, Jurkat): 5.92e-10 M

CN1C(=O)[C@@H](NC(=O)c2cn(Cc3ccccc3)cn2)CSc2cc3occc3cc21 [RIP1-036]
IC50 (Homo sapiens, Jurkat): 1.8e-10 M

CN1C(=O)[C@@H](NC(=O)c2cc(Oc3cccnc3)ccn2)COc2ccc3ncccc3c21 [RIP1-210]
IC50 (Homo sapiens, Jurkat): 7.8e-09 M

CN1C(=O)[C@@H](NC(=O)c2ncn(Cc3ccccc3)n2)COc2cc3[nH]ncc3cc21 [RIP1-025]
IC50 (Homo sapiens, Jurkat): 2.86e-10 M

CN1C(=O)[C@@H](NC(=O)c2ccnc(Nc3ccccc3)n2)COc2ccc3ncccc3c21 [RIP1-202]
IC50 (Homo sapiens, Jurkat): > 2e-05 M

CN1C(=O)[C@@H](NC(=O)c2cc(Cc3ccccc3)on2)CSc2cc3c(ccn3Cc3ccccc3)cc21 [RIP1-085]
IC50 (Homo sapiens, Jurkat): > 2e-06 M

CN1C(=O)[C@@H](NC(=O)c2nnc(Cc3ccccc3)[nH]2)COc2cc3[nH]ncc3cc21 [RIP1-023]
IC50 (Homo sapiens, Jurkat): 2.54e-09 M

CN1C(=O)[C@@H](NC(=O)c2nccc(Oc3ccccc3)n2)COc2cc3ncoc3cc21 [RIP1-213]
IC50 (Homo sapiens, Jurkat): 7.68e-08 M

CN1C(=O)[C@@H](NC(=O)c2nnn(Cc3ccccc3)n2)CSc2cc3c(ccn3C)cc21 [RIP1-058]
IC50 (Homo sapiens, Jurkat): 2.53e-10 M

O=C(N[C@H]1COc2ccc3cccnc3c2NC1=O)c1n[nH]c(Cc2ccccc2)n1 [RIP1-149]
IC50 (Homo sapiens, Jurkat): > 2e-06 M

CN1C(=O)[C@@H](NC(=O)c2cncc(Oc3ccccc3)c2)COc2ccc3ncccc3c21 [RIP1-193]
IC50 (Homo sapiens, Jurkat): 2.95e-07 M

COc1ncnc2cc3c(cc12)N(C)C(=O)[C@@H](NC(=O)c1n[nH]c(Cc2cc(F)cc(F)c2)n1)CO3 [RIP1-176]
IC50 (Homo sapiens, Jurkat): 6.9e-09 M

CC(=O)n1ncc2cc3c(cc21)SC[C@H](NC(=O)c1cc(Cc2ccccc2)on1)C(=O)N3C [RIP1-018]
IC50 (Homo sapiens, Jurkat): 2.7e-10 M

CN1C(=O)[C@@H](NC(=O)c2n[nH]c(Cc3ccccc3F)n2)COc2ccc3cnccc3c21 [RIP1-163]
IC50 (Homo sapiens, Jurkat): 1.3e-09 M

CN1C(=O)[C@@H](NC(=O)c2n[nH]c(Cc3c(F)cccc3F)n2)COc2cc3[nH]nnc3cc21 [RIP1-166]
IC50 (Homo sapiens, Jurkat): 2.98e-07 M

CN1C(=O)[C@@H](NC(=O)c2cnn(Cc3ccccc3)c2)CSc2cc3c(ccn3C)cc21 [RIP1-010]
IC50 (Homo sapiens, Jurkat): 9.6e-08 M

CN1C(=O)[C@@H](NC(=O)c2cnn(Cc3ccccc3)c2)CSc2cc3[nH]ccc3cc21 [RIP1-004]
IC50 (Homo sapiens, Jurkat): 5.63e-08 M

CN1C(=O)[C@@H](NC(=O)c2ncn(Cc3ccccc3)n2)COc2cc3nccnc3cc21 [RIP1-128]
IC50 (Homo sapiens, Jurkat): 4.83e-07 M

CN1C(=O)[C@@H](NC(=O)c2n[nH]c(Cc3ccccc3F)n2)COc2ccc3ncccc3c21 [RIP1-170]
IC50 (Homo sapiens, Jurkat): 1.74e-09 M
IC50: 3e-09 M

CN1C(=O)[C@@H](NC(=O)c2cn(Cc3ccccc3)nn2)CSc2ccc3ncccc3c21 [RIP1-095]
IC50 (Homo sapiens, Jurkat): 9.85e-09 M

CN1C(=O)[C@@H](NC(=O)c2cc(Oc3ccccc3)ccn2)COc2ccc3ncccc3c21 [RIP1-179]
IC50 (Homo sapiens, Jurkat): 6.7e-10 M

CN1C(=O)[C@@H](NC(=O)c2cn(Cc3ccccc3)nn2)CSc2ccc3cnccc3c21 [RIP1-105]
IC50 (Homo sapiens, Jurkat): 3.22e-09 M

Cc1nc2cc3c(cc2[nH]1)OC[C@H](NC(=O)c1cccc(Cc2ccccc2)c1)C(=O)N3C [RIP1-066]
IC50 (Homo sapiens, Jurkat): 6.7e-07 M

CN1C(=O)[C@@H](NC(=O)c2cn(Cc3ccccc3)cn2)CSc2cc3c(ccn3Cc3ccccc3)cc21 [RIP1-088]
IC50 (Homo sapiens, Jurkat): > 2e-06 M

CN1C(=O)[C@@H](NC(=O)c2nnc(Cc3ccccc3)[nH]2)COc2cc3[nH]ccc3cc21 [RIP1-112]
IC50 (Homo sapiens, Jurkat): 1.22e-09 M

CN1C(=O)[C@@H](NC(=O)c2cncn2Cc2ccccc2)CSc2cc3c(ccn3C)cc21 [RIP1-054]
IC50 (Homo sapiens, Jurkat): > 2e-06 M

Cc1ccc(Cc2cc(C(=O)N[C@H]3COc4cc5[nH]nnc5cc4N(C)C3=O)nn2C)cc1 [RIP1-141]
IC50 (Homo sapiens, Jurkat): 2.19e-08 M

CN1C(=O)[C@@H](NC(=O)c2nccc(Oc3ccccc3)n2)COc2cc3nccnc3cc21 [RIP1-215]
IC50 (Homo sapiens, Jurkat): 3.45e-07 M

CN1C(=O)[C@@H](NC(=O)c2nnc(Oc3ccccc3)[nH]2)COc2cc3ncoc3cc21 [RIP1-211]
IC50 (Homo sapiens, Jurkat): 2.72e-07 M

CN1C(=O)[C@@H](NC(=O)c2cc(Nc3ccccc3)ccn2)COc2ccc3ncccc3c21 [RIP1-200]
IC50 (Homo sapiens, Jurkat): 8.18e-08 M

CN1C(=O)[C@@H](NC(=O)c2cn(Cc3ccccc3)nn2)COc2cc3nccnc3cc21 [RIP1-130]
IC50 (Homo sapiens, Jurkat): 5.43e-08 M

CN1C(=O)[C@@H](NC(=O)c2cc(Oc3cccc(F)c3)ccn2)COc2ccc3ncccc3c21 [RIP1-204]
IC50 (Homo sapiens, Jurkat): 3.04e-09 M

CN1C(=O)[C@@H](NC(=O)c2ncn(Cc3ccccc3)n2)CSc2cc3[nH]ncc3cc21 [RIP1-020]
IC50 (Homo sapiens, Jurkat): 2.3e-10 M

CN1C(=O)[C@@H](NC(=O)c2n[nH]c(Cc3cccc(F)c3)n2)COc2cc3nccnc3cc21 [RIP1-209]
IC50 (Homo sapiens, Jurkat): 1.92e-09 M

CN1C(=O)[C@@H](NC(=O)c2cc(Oc3ccccc3)ccn2)COc2cc3[nH]ncc3cc21 [RIP1-190]
IC50 (Homo sapiens, Jurkat): 1.44e-10 M

Cc1ccc(Cc2cc(C(=O)N[C@H]3CSc4cc5c(ccn5C)cc4N(C)C3=O)nn2C)cc1 [RIP1-056]
IC50 (Homo sapiens, Jurkat): 4.15e-08 M

CN1C(=O)[C@@H](NC(=O)c2nnn(Cc3ccccc3)n2)CSc2cc3[nH]ccc3cc21 [RIP1-043]
IC50 (Homo sapiens, Jurkat): 1.31e-10 M

CN1C(=O)[C@@H](NC(=O)c2cc(Cc3ccccc3)on2)CSc2cc3occc3cc21 [RIP1-038]
IC50 (Homo sapiens, Jurkat): 1.29e-10 M

CN1C(=O)[C@@H](NC(=O)c2nc(Cc3ccccc3)n[nH]2)COc2cc3[nH]c(=O)[nH]c3cc21 [RIP1-076]
IC50 (Homo sapiens, Jurkat): > 2e-06 M

CN1C(=O)[C@@H](NC(=O)c2ncn(Cc3ccccc3)n2)CSc2cc3[nH]nc(Cl)c3cc21 [RIP1-026]
IC50 (Homo sapiens, Jurkat): 2.8e-10 M

CN1C(=O)[C@@H](NC(=O)c2cccc(Oc3ccccc3)n2)COc2ccc3ncccc3c21 [RIP1-194]
IC50 (Homo sapiens, Jurkat): 7.28e-06 M

CN1C(=O)[C@@H](NC(=O)c2cn(Cc3ccccc3)cn2)CSc2cc3[nH]ccc3cc21 [RIP1-006]
IC50 (Homo sapiens, Jurkat): 1.25e-09 M

CN1C(=O)[C@@H](NC(=O)c2n[nH]c(Cc3ccc(F)cc3)n2)COc2cc3ncoc3cc21 [RIP1-185]
IC50 (Homo sapiens, Jurkat): 2.72e-09 M

CN1C(=O)[C@@H](NC(=O)c2n[nH]c(Cc3ccc(F)cc3)n2)COc2ccc3ncccc3c21 [RIP1-171]
IC50 (Homo sapiens, Jurkat): 1.4e-08 M

COc1ncnc2cc3c(cc12)N(C)C(=O)[C@@H](NC(=O)c1n[nH]c(Cc2c(F)cccc2F)n1)CO3 [RIP1-156]
IC50 (Homo sapiens, Jurkat): 2.8e-08 M

CN1C(=O)[C@@H](NC(=O)c2nnc(Cc3cccc(F)c3)[nH]2)COc2cc3ocnc3cc21 [RIP1-217]
IC50 (Homo sapiens, Jurkat): 1.38e-09 M

CN1C(=O)[C@@H](NC(=O)c2n[nH]c(Cc3ccc(F)cc3)n2)COc2cc3nccnc3cc21 [RIP1-207]
IC50 (Homo sapiens, Jurkat): 4.88e-09 M

Cc1ccc(Cc2cc(C(=O)N[C@H]3CSc4cc5[nH]ccc5cc4N(C)C3=O)n(C)n2)cc1 [RIP1-044]
IC50 (Homo sapiens, Jurkat): 1.91e-08 M

CN1C(=O)[C@@H](NC(=O)c2cnnn2Cc2ccccc2)CSc2cc3c(ccn3C)cc21 [RIP1-052]
IC50 (Homo sapiens, Jurkat): > 2e-06 M

CN1C(=O)[C@@H](NC(=O)c2n[nH]c(Cc3cccc(F)c3)n2)COc2ccc3cnccc3c21 [RIP1-165]
IC50 (Homo sapiens, Jurkat): 2.5e-09 M
